Experiment [1] deals with T1, Recombinant Src enzyme (Homo sapiens, UniProt P12931).
T1 construct: purchased Millipore 14-326; host or cells: Sf21 insect cells
The experiment can be described thus: Src HTRF assay. It is filed as biochemical. In short, it runs like this: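 Run as for the FAK HTRF assay (same buffer, supplements, compound preparation and procedure), with dasatinib included. Reaction contained 0.5 μM biotin-tagged Tyk2 synthetic peptide, 5 nM Src made in Sf21 cells, and a pH7.4-buffer-prepared component at 10 μM final.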
For orientation: TR-FRET usually uses a lanthanide donor and a delayed reading to cut background.

Experiment [2] deals with T2, FAK phosphorylated at Y397 in HEK-FAK cell line overexpressing human FL FAK protein (Homo sapiens, UniProt Q05397).
T2 construct: expressed in transfected cells
T2 sequence (Q05397 whole entry): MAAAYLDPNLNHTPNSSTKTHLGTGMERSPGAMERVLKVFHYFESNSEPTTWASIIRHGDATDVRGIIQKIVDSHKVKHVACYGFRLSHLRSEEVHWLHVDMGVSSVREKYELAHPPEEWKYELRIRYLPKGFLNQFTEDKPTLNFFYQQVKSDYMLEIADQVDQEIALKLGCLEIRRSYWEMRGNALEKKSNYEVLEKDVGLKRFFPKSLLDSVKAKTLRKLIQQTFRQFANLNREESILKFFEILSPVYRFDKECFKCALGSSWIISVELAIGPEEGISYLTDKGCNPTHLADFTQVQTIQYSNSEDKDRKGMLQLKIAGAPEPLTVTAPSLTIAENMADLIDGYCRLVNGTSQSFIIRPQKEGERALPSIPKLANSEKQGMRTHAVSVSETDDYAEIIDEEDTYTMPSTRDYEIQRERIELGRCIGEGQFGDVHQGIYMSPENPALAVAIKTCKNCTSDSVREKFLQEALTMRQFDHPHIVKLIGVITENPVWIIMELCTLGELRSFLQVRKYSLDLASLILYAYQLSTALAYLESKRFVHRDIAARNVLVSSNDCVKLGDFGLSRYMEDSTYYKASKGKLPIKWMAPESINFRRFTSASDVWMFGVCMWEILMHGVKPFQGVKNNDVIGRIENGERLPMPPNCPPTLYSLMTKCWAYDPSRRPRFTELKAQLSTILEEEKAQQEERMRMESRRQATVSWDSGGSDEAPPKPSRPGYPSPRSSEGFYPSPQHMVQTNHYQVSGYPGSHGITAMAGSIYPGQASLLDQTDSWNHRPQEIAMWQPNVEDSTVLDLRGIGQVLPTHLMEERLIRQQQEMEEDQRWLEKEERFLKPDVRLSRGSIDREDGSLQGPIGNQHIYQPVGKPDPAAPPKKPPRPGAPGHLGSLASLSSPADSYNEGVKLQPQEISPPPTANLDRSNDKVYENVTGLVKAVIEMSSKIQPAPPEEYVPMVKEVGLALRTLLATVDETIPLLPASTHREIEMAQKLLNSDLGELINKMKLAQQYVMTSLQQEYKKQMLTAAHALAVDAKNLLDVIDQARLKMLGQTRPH
Description: Cell based assay, Phospho-FAK ELISA. The conditions noted are these: HEK stb; read-out: pFAK EC50 (μM) HEK stb. Put shortly:
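Stable HEK293 line overexpressing full-length human FAK, kept under 0.8 mg/mL Zeocin. In lysates, FAK Y397 autophosphorylation was measured by sandwich ELISA: total-FAK capture antibody, biotinylated pY397-specific detection antibody, streptavidin-HRP with TMB substrate.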
For orientation: An ELISA detects its analyte on a solid surface through an enzyme-linked reagent.

The target in experiment [3] is JAK2 (Homo sapiens, UniProt O60674). The experiment can be described thus: JAK2 biochemical potency. The following applies: read-out: JAK2 HTRF IC50.
JAK2, sequence (O60674 whole entry, species assumed): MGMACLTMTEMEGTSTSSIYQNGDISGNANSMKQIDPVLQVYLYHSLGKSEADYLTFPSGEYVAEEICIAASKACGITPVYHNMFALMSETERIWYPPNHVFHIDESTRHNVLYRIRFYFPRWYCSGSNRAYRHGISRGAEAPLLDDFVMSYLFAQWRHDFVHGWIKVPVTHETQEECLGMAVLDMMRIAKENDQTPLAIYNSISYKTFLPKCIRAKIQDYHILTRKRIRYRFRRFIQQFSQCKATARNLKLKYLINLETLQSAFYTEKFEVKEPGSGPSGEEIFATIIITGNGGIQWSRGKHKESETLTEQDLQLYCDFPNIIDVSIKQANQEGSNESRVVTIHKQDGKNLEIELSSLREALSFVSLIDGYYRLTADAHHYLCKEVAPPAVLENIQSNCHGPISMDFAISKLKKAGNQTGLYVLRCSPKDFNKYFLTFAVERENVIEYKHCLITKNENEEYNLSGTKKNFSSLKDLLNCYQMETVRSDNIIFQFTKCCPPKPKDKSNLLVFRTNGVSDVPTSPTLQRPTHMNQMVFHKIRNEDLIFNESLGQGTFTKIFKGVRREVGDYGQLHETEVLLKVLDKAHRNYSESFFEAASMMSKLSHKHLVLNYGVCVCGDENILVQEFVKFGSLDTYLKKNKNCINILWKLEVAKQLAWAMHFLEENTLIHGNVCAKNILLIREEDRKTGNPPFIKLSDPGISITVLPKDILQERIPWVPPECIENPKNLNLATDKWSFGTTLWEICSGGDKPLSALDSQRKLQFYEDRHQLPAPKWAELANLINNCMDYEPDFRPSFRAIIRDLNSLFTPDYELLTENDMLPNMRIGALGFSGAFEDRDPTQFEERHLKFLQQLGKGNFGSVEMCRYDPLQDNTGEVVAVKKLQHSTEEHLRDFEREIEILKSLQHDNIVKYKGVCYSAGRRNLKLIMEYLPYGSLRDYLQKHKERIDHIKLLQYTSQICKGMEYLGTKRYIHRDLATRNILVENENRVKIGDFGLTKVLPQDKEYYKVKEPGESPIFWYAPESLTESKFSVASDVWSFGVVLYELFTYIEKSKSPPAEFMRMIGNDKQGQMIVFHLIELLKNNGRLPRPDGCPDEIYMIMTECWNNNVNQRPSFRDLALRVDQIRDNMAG

Structures are written as SMILES.

T1 sequence (P12931 whole entry): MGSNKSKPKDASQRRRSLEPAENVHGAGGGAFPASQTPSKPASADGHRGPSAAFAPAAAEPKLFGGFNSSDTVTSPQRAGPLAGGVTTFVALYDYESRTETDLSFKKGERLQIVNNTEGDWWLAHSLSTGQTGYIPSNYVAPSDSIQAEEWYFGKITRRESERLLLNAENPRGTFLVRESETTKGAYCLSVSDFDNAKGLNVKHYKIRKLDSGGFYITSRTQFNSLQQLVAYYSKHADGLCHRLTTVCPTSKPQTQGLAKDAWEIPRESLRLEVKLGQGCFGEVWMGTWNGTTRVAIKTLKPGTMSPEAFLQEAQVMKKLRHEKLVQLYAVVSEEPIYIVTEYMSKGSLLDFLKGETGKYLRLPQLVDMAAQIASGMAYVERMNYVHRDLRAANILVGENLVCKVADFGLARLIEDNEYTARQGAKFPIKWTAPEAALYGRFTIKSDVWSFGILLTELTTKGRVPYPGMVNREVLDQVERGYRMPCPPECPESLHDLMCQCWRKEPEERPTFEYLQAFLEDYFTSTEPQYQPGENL

As to `Cc1cc(Nc2ncc3cnn(S(=O)(=O)c4cccc5cccnc45)c3n2)ccc1N1CCNCC1` [Example 332], the IC50 (as a rule, the concentration that inhibits the measured activity by half) in experiment [1] was less than 20 nM. For the same molecule, the EC50 (in general, the concentration that produces a half-maximal response) in experiment [2] is less than 0.02 µM. In the case of `CN(c1ncccc1Cn1ncc2cnc(Nc3ccc4[nH]c(=O)[nH]c4c3)cc21)S(C)(=O)=O` [Example 142], the half-inhibitory concentration (IC50) in experiment [1] is greater than 1000 nM. The EC50 in experiment [2] was greater than 1 µM. Take `O=S(=O)(c1cccc2nsnc12)n1ccc2cnc(Nc3ccc(N4CCNCC4)cc3)nc21` [Example 253]: the EC50 in experiment [2] was greater than 1 µM. For the same molecule, in experiment [3], the concentration for half-maximal inhibition (IC50) was less than 20 nM. For `O=C1CCc2cc(Nc3ncc4ccn(S(=O)(=O)c5cccc6cccnc56)c4n3)ccc2N1` [Example 169], the concentration for half-maximal inhibition (IC50) in experiment [1] is less than 20 nM. Regarding `CN(c1ncccc1Cn1ccc2cnc(Nc3ccc(N4CCCC4CO)cc3)nc21)S(C)(=O)=O` (stereo not drawn) [Example 536], in experiment [2], the EC50 is greater than 1 µM. Take `CN(c1ncccc1Cn1ccc2cnc(Nc3ccc(NCCO)cc3)nc21)S(C)(=O)=O` [Example 201]: the half-maximal effective concentration (EC50) in experiment [2] is greater than 1 µM. For the same molecule, the half-maximal inhibitory concentration (IC50) in experiment [3] was less than 20 nM. For `CC(=O)Nc1cccc(Nc2cc3c(cn2)cnn3Cc2ccccc2OC(F)F)c1` [Example 64], the concentration giving a half-maximal response (EC50) in experiment [2] was greater than 1 µM. In the case of `O=C1CCc2cc(Nc3ncc4ccn(Cc5cccnc5N5CCCS5(=O)=O)c4n3)ccc2N1` [Example 216], the half-maximal inhibitory concentration (IC50) in experiment [1] was less than 20 nM. Besides, in experiment [2], the EC50 is greater than 1 µM.

Regarding `FC(F)Oc1ccccc1Cn1ccc2cnc(Nc3ccc4ncsc4c3)nc21` [Example 36], the EC50 in experiment [2] is greater than 1 µM. Further, in experiment [3], the 50% inhibitory concentration (IC50) was less than 20 nM. As to `Cn1cc(Nc2ncc3ccn(S(=O)(=O)c4cccc5cccnc45)c3n2)cn1` [Example 318], the 50% effective concentration (EC50) in experiment [2] is greater than 1 µM. Take `O=C1CCc2cc(Nc3ncc4cnn(Cc5ccccc5OC(F)F)c4n3)ccc2N1` [Example 21]: the IC50 in experiment [1] and in experiment [3] was less than 20 nM in each case. Further, in experiment [2], the half-maximal effective concentration (EC50) is greater than 1 µM. As for `CN(c1ncccc1Cn1ncc2cnc(Nc3ccc4c(c3)CCC(=O)N4)nc21)S(C)(=O)=O` [Example 202], the 50% inhibitory concentration (IC50) in experiment [1] and in experiment [3] was less than 20 nM in each case. Moreover, the 50% effective concentration (EC50) in experiment [2] is greater than 1 µM.

For the molecule `COc1ccccc1S(=O)(=O)n1ncc2cnc(Nc3ccc(N4CCNCC4)cc3)nc21` [Example 335], in experiment [2], the EC50 was greater than 1 µM.

Turning to `COc1cc(N2CCNCC2)ccc1Nc1cc2c(ccn2S(=O)(=O)c2cccc3cccnc23)cn1` [Example 330, N-(2-Methoxy-4-(piperazin-1-yl)phenyl)-1-(quinolin-8-ylsulfonyl)-1H-pyrrolo[3,2-c]pyridin-6-amine], the IC50 in experiment [1] and in experiment [3] was greater than 1000 nM throughout. Also, the concentration for a half-maximal effect (EC50) in experiment [2] is less than 0.02 µM. As to `FC(F)Oc1ccccc1Cn1ncc2cnc(Nc3ccc4ncsc4c3)cc21` [Example 82], the concentration giving a half-maximal response (EC50) in experiment [2] was greater than 1 µM.

The record behind these values is patent US20160222014A1, “COMPOUNDS FOR REGULATING FAK AND/OR SRC PATHWAYS” (ASANA BIOSCIENCES, LLC, priority 2013, published 2016).
